Laboratory results as given in ChEMBL document CHEMBL5042502, “Discovery of Potent and Selective 2-(Benzylthio)pyrimidine-based DCN1-UBC12 Inhibitors for Anticardiac Fibrotic Effects” (J Med Chem, 2022).
Active and inactive are the calls of the source. The rule behind the calls is not given here.

Legend:
DCN1-like protein 1 [1] = target: T1, DCN1-like protein 1 (Homo sapiens, UniProt Q96GG9); assay: Inhibition of GST-tagged DCN1 (unknown origin) using AcUBE2M1-21 incubated for 30 mins by HTRF assay
Target sequence in this assay (Q96GG9 whole entry): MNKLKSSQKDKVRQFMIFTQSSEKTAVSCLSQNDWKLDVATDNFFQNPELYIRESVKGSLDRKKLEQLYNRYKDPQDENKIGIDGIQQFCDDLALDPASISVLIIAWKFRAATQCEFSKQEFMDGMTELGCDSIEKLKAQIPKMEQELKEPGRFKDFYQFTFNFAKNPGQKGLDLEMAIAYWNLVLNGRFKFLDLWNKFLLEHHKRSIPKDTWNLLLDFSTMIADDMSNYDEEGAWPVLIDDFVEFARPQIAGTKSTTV

[2] = Cytotoxicity against Sprague-Dawley rat cardiac fibroblast by MTT assay; type: toxicity, cell-based, Fibroblast of cardiac tissue; details: cardiac fibroblasts
DCN1-like protein 1 [3] = target: T1, DCN1-like protein 1
Target sequence in this assay (Q96GG9 whole entry, looked up): as the sequence (Q96GG9 whole entry) above
Description: Binding affinity to DCN1 (unknown origin) assessed as Gibbs free energy change by MM-PBSA method

DCN1-like protein 1 [4] = target: T1, DCN1-like protein 1; remark: listed apart in the source
Target sequence in this assay (Q96GG9 whole entry, looked up): as the sequence (Q96GG9 whole entry) above
Description: Binding affinity to DCN1 (unknown origin) assessed as change in entropy by MM-PBSA method

[5] = system: Fibroblast of cardiac tissue; assay: Antifibrotic effect in SD rat cardiac fibroblast assessed as reduction in Ang II-induced collagen I upregulation preincubated for 2 hrs followed by Ang II-stimulation and further incubated for 24 hrs by western blot analysis (reference value: 71 %); type: functional; details: time 26.0 hrs
[6] = system: Fibroblast of cardiac tissue; assay: Antifibrotic effect in SD rat cardiac fibroblast assessed as reduction in Ang II-induced activation of Nrf2 signaling pathway preincubated for 2 hrs followed by Ang II-stimulation and further incubated for 24 hrs by western blot analysis (reference value: 43 %); type: functional; details: time 26.0 hrs
DCN1-like protein 3 = target: T2, DCN1-like protein 3 (Homo sapiens, UniProt Q8IWE4); assay: Binding affinity to DCN3 (unknown origin) assessed as inhibitory constant
T2 sequence (Q8IWE4 whole entry): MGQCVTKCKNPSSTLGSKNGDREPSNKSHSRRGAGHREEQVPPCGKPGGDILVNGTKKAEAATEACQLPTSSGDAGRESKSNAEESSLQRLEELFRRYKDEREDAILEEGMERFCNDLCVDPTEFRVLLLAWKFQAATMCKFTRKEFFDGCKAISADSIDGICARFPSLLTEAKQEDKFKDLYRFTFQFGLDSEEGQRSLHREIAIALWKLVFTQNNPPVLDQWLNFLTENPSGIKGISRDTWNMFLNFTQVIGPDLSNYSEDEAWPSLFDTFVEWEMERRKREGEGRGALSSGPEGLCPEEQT

Cardiac fibroblast = assay: Inhibition of DCN1 in Sprague-Dawley rat cardiac fibroblast assessed as suppression in DCN1-UBC12 interaction by measuring reduction in UBC12 level at 10 uM incubated for 5 hrs co-incubated with DCN1 antibody by co-immunoprecipitation pull down assay; type: cell-based
DCN1-like protein 5 = target: T3, DCN1-like protein 5 (Homo sapiens, UniProt Q9BTE7); assay: Binding affinity to DCN5 (unknown origin) assessed as inhibitory constant
T3 sequence (Q9BTE7 whole entry): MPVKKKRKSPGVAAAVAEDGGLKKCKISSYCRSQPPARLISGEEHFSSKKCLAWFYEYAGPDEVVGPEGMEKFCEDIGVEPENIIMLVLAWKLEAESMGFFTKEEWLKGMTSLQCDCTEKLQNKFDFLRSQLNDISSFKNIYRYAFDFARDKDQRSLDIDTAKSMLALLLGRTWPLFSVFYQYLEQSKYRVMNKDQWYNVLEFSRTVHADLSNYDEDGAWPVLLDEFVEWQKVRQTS

DCN1-like protein 2 = DCN1-like protein 2 (Homo sapiens, UniProt Q6PH85); assay: Binding affinity to DCN2 (unknown origin) assessed as inhibitory constant
Chain of DCN1-like protein 2 (Q6PH85 whole entry): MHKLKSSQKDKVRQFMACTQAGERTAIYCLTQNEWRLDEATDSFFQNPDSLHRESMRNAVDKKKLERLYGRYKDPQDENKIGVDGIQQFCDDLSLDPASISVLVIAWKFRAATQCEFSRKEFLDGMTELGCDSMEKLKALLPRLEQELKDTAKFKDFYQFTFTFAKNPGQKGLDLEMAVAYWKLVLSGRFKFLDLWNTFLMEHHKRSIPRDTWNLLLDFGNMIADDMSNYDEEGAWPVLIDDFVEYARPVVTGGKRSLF

Row | Compound | IC50 (DCN1-like protein 1 [1]) | also measured
1 | COc1cc(-c2nc(SCc3ccc(C(C)(C)C)cc3)nc(Sc3nccs3)c2C#N)cc(OC)c1OC | 0.0115 µM | 
2 | COc1cc(-c2nc(SCc3ccc4ccccc4c3)nc(Sc3nnnn3CCN(C)C)c2C#N)cc(OC)c1OC | 0.00225 µM | IC50 [2]: 25.8 µM
3 | Cc1ccc(CSc2nc(Sc3nccs3)c(C#N)c(-c3ccc(Oc4ccccc4)cc3)n2)cc1 | 1.02 µM | 
4 | C=CCSc1nc(Sc2nccs2)c(C#N)c(-c2cc(OC)c(OC)c(OC)c2)n1 | 0.0369 µM | 
5 | COc1cc(-c2nc(SCc3ccccc3)nc(NCc3nccs3)c2C#N)cc(OC)c1OC | > 10 µM | 
6 | COc1ccc(CNc2nc(Sc3nnnn3C)cc(-c3cc(OC)c(OC)c(OC)c3)n2)cc1 | 4.13 µM | 
7 | COc1cc(-c2nc(SCc3ccc(Cl)cc3)nc(Sc3nccs3)c2C#N)cc(OC)c1OC | 0.0247 µM | 
8 | COc1cc(-c2nc(SCC(=O)Nc3ccccc3)nc(Sc3nccs3)c2C#N)cc(OC)c1OC | 8.01 µM | 
9 | COc1cc(-c2nc(SCc3ccc(C)cc3)nc(Sc3nccs3)c2C#N)cc(OC)c1OC | 0.0422 µM | IC50 [2]: 6.15 µM
10 | COc1cc(-c2nc(SCc3ccccc3)nc(Sc3nnnn3CCN(C)C)c2C#N)cc(OC)c1OC | 0.0281 µM | 
11 | Cc1ccc(CSc2nc(Sc3nccs3)c(C#N)c(-c3cccc(C)c3)n2)cc1 | 1.69 µM | 
12 | COc1cc(-c2nc(SCc3cccc(C)c3)nc(Sc3nnnn3C)c2C#N)cc(OC)c1OC | 0.0111 µM | 
13 | COc1cc(-c2nc(SCc3ccc(C(F)(F)F)cc3)nc(Sc3nnnn3C)c2C#N)cc(OC)c1OC | 0.0291 µM | 
14 | Cc1ccc(CSc2nc(Sc3nccs3)c(C#N)c(-c3c[nH]c4ccccc34)n2)cc1 | > 10 µM | 
15 | COc1cc(-c2nc(SCc3ccc(C)cc3)nc(Sc3nnnn3C)c2C#N)cc(OC)c1OC | 0.00286 µM | IC50 [2]: 9.97 µM
16 | COc1cc(-c2nc(SCc3cccc(C(F)(F)F)c3)nc(Sc3nccs3)c2C#N)cc(OC)c1OC | 0.0293 µM | 
17 | COc1cc(-c2nc(SCc3ccc(C)cc3)nc(Sc3nnnn3CCN(C)C)c2C#N)cc(OC)c1OC | 0.00937 µM | IC50 [2]: 26.1 µM
18 | COc1cc(-c2nc(SCc3cccc(C)c3)nc(Sc3nnnn3CCN(C)C)c2C#N)cc(OC)c1OC | 0.0124 µM | 
19 | COc1cc(-c2nc(SCc3ccccc3)nc(Nc3ccc(Cl)cc3)c2C#N)cc(OC)c1OC | > 10 µM | 
20 | COc1cc(-c2nc(SCc3cccc(C)c3)nc(Sc3nccs3)c2C#N)cc(OC)c1OC | 0.00548 µM | IC50 [2]: 15.7 µM

Row | Compound | IC50 (DCN1-like protein 1 [1]) | also measured
21 | COc1cc(-c2nc(SCc3ccc4ccccc4c3)nc(Sc3nnnn3C)c2C#N)cc(OC)c1OC | 0.00615 µM | IC50 [2]: 18.9 µM
22 | COc1cc(-c2nc(SCc3ccc(C(C)(C)C)cc3)nc(Sc3nnnn3C)c2C#N)cc(OC)c1OC | 1.22 µM | 
23 | Cc1ccc(CSc2nc(Sc3nccs3)c(C#N)c(-c3ccc(Cl)cc3)n2)cc1 | 0.0659 µM | 
24 | COc1cc(-c2nc(SCc3ccccc3)nc(Nc3cccc(Cl)c3)c2C#N)cc(OC)c1OC | 2.39 µM | 
25 | Cc1ccc(CSc2nc(Sc3nccs3)c(C#N)c(-c3ccc(C)cc3)n2)cc1 | 0.0209 µM | 
26 | COc1ccc(-c2nc(SCc3ccc(C)cc3)nc(Sc3nccs3)c2C#N)cc1 | 0.0212 µM | 
27 | COc1ccc(Nc2nc(SCc3ccccc3)nc(-c3cc(OC)c(OC)c(OC)c3)c2C#N)cc1 | > 10 µM | 
28 | COc1cc(-c2nc(SCc3ccc(C(F)(F)F)cc3)nc(Sc3nnnn3CCN(C)C)c2C#N)cc(OC)c1OC | 0.0605 µM | 
29 | COc1cc(-c2nc(SCc3ccc4ccccc4c3)nc(Sc3nccs3)c2C#N)cc(OC)c1OC | 0.0364 µM | IC50 [2]: 22.9 µM
30 | COc1cc(-c2nc(SCc3ccc(Cl)cc3)nc(Sc3nnnn3CCN(C)C)c2C#N)cc(OC)c1OC | 0.0253 µM | 
31 | COc1cc(-c2nc(SCCc3ccccc3)nc(Sc3nccs3)c2C#N)cc(OC)c1OC | 2.57 µM | 
32 | COc1cc(-c2nc(SCc3ccccc3)nc(Sc3nccs3)c2C#N)cc(OC)c1OC | 0.0282 µM | 
33 | COc1cc(-c2nc(SCC(=O)NC(=O)Nc3ccccc3)nc(Sc3nccs3)c2C#N)cc(OC)c1OC | 6.18 µM | 
34 | COc1cc(-c2nc(SCc3ccccc3C)nc(Sc3nccs3)c2C#N)cc(OC)c1OC | 0.89 µM | 
35 | COc1cc(-c2nc(SCc3cccc(C(F)(F)F)c3)nc(Sc3nnnn3CCN(C)C)c2C#N)cc(OC)c1OC | 0.0122 µM | 
36 | COc1ccc(-c2nc(SCc3ccc(C)cc3)nc(Sc3nccs3)c2C#N)cc1OC | 0.0171 µM | 
37 | Cc1ccc(CSc2nc(Sc3nccs3)c(C#N)c(-c3ccccc3)n2)cc1 | 2.79 µM | 
38 | COc1cc(-c2nc(SCc3ccccc3)nc(Sc3nc(C)c(C)s3)c2C#N)cc(OC)c1OC | > 10 µM | 
39 | COc1cc(-c2nc(SCc3c(C)noc3C)nc(Sc3nccs3)c2C#N)cc(OC)c1OC | 0.412 µM | 
40 | COc1cc(-c2nc(SCc3ccoc3C(F)(F)F)nc(Sc3nccs3)c2C#N)cc(OC)c1OC | 0.45 µM | 

Row | Compound | IC50 (DCN1-like protein 1 [1]) | also measured
41 | COc1cc(-c2nc(SCc3ccccc3)nc(Sc3nc(C)cs3)c2C#N)cc(OC)c1OC | 0.0411 µM | 
42 | COC(=O)c1ccc(CSc2nc(Sc3nccs3)c(C#N)c(-c3cc(OC)c(OC)c(OC)c3)n2)cc1 | 0.00536 µM | 
43 | COc1cc(-c2nc(SCc3ccccc3)nc(NC(C)(C)N3CCOCC3)c2C#N)cc(OC)c1OC | > 10 µM | 
44 | COc1cc(-c2nc(SCC3CCCCC3)nc(Sc3nccs3)c2C#N)cc(OC)c1OC | 0.611 µM | 
45 | COc1cc(-c2nc(SCc3ccncc3)nc(Sc3nccs3)c2C#N)cc(OC)c1OC | 0.653 µM | 
46 | COc1cc(-c2nc(SCc3ccccc3)nc(Nc3ccc(O)c(Cl)c3)c2C#N)cc(OC)c1OC | > 10 µM | 
47 | COc1cc(-c2nc(SCc3cccc(C(F)(F)F)c3)nc(Sc3nnnn3C)c2C#N)cc(OC)c1OC | 0.0258 µM | 
48 | Cc1ccc(CSc2nc(Sc3nccs3)c(C#N)c(-c3ccccc3C)n2)cc1 | 0.463 µM | 
49 | COc1cc(-c2cc(Sc3nnnn3C)nc(SCc3ccc(Cl)cc3)n2)cc(OC)c1OC | 9.62 µM | deltaG (DCN1-like protein 1 [3]): -7.12 kcal/mol; -TdeltaS (DCN1-like protein 1 [4]): 10.6 kcal/mol; inhibition [5]: inactive; inhibition [6]: inactive
50 | COc1cc(-c2nc(SCc3ccccc3)nc(Sc3nnnn3C)c2C#N)cc(OC)c1OC | 0.0364 µM | 
51 | COc1ccc(CSc2nc(Sc3nnnn3C)c(C#N)c(-c3cc(OC)c(OC)c(OC)c3)n2)cc1 | 0.0312 µM | 
52 | C#CCSc1nc(Sc2nccs2)c(C#N)c(-c2ccc(C)cc2)n1 | 0.0183 µM | Ki (DCN1-like protein 3): 592 µM; IC50 [2]: 12.6 µM; inhibition (Cardiac fibroblast): Dose-Dependent Effect; Ki (DCN1-like protein 5): 2.14 µM; Ki (DCN1-like protein 2): 66.2 µM
53 | CCCSc1nc(Sc2nccs2)c(C#N)c(-c2cc(OC)c(OC)c(OC)c2)n1 | 0.258 µM | 
54 | COc1cc(-c2nc(SCc3nc4ccccc4[nH]3)nc(Sc3nccs3)c2C#N)cc(OC)c1OC | 0.814 µM | 
55 | Cc1ccc(CSc2nc(Sc3nccs3)c(C#N)c(-c3ccc(Br)cc3)n2)cc1 | 0.0279 µM | 
56 | COc1cc(-c2nc(SCc3ccc(C(F)(F)F)cc3)nc(Sc3nccs3)c2C#N)cc(OC)c1OC | 0.1 µM | 
57 | COc1ccc(CSc2nc(Sc3nnnn3CCN(C)C)c(C#N)c(-c3cc(OC)c(OC)c(OC)c3)n2)cc1 | 0.0134 µM | 
58 | C#CCSc1nc(Sc2nnnn2C)c(C#N)c(-c2cc(OC)c(OC)c(OC)c2)n1 | 0.00025 µM | deltaG (DCN1-like protein 1 [3]): -10.3 kcal/mol; -TdeltaS (DCN1-like protein 1 [4]): 10.8 kcal/mol
59 | COc1ccc(CSc2nc(Sc3nccs3)c(C#N)c(-c3cc(OC)c(OC)c(OC)c3)n2)cc1 | 2.57 µM | 
60 | Cc1ccc(CSc2nc(Sc3nccs3)c(C#N)c(-c3cccs3)n2)cc1 | > 10 µM | 
